Measurements from ChEMBL document CHEMBL3885861, “Open TG-GATES”.

Species: Rattus norvegicus
Experiment: Open TG-GATES - Regimen: Single
Assay type: toxicity, organism-based, Sprague-Dawley
Parameters: regimen Single, gender Male, age 6 weeks
Details: in vivo, po, 60 mg/kg, route gavage, dose level High; for APTT / Bas / Eos / Fbg / Hb / Ht / Lym / MCH / MCHC / MCV / Mono / Neu / PT / Plat / RBC / WBC: tissue Blood; for KIDNEY_L / KIDNEY_R / KIDNEY_TOTAL: tissue Kidney; for LIVER: tissue Liver; for ALT / AST / BUN / CRE / Cl / DBIL / GLC / IP / LDH / Na / RALB / TBIL / TC / TG / TP / gamma-GTP: tissue Plasma

Structure (SMILES): CC/C(=C(\c1ccccc1)c1ccc(OCCN(C)C)cc1)c1ccccc1 [TAMOXIFEN]
- TERMINAL_BW (3 h): 193.1 g
- APTT (3 h): 16.1 s
- Bas (3 h): 0%
- Eos (3 h): 1%
- Fbg (3 h): 259.8 mg/dL
- Hb (3 h): 13.1 g/dL
- Ht (3 h): 39.5%
- Lym (3 h): 77.6%
- MCH (3 h): 21.8 pg
- MCHC (3 h): 33.3%
- MCV (3 h): 65.7 fL
- Mono (3 h): 3.8%
- Neu (3 h): 17.4%
- PT (3 h): 11.9 s
- Plat (3 h): 112.1 x10_4/uL
- RBC (3 h): 601.4 x10_4/ul
- WBC (3 h): 80.5 x10_2/uL
- KIDNEY_L (3 h): 0.9 g
- KIDNEY_R (3 h): 0.9 g
- KIDNEY_TOTAL (3 h): 1.7 g
- LIVER (3 h): 8.3 g
- ALT (3 h): 50.8 IU/L
- AST (3 h): 82.6 IU/L
- BUN (3 h): 9.4 mg/dL
- CRE (3 h): 0.2 mg/dL
- Cl (3 h): 106.8 meq/L
- DBIL (3 h): 0.026 mg/dL
- GLC (3 h): 169.2 mg/dL
- IP (3 h): 9.5 mg/dL
- LDH (3 h): 77 IU/L
- Na (3 h): 140.8 meq/L
- RALB (3 h): 2.6 g/dL
- TBIL (3 h): 0.05 mg/dL
- TC (3 h): 80 mg/dL
- TG (3 h): 106.2 mg/dL
- TP (3 h): 5.6 g/dL
- gamma-GTP (3 h): 1 IU/L
- TERMINAL_BW (6 h): 193.6 g
- Bas (6 h): 0%
- Eos (6 h): 0.8%
- Fbg (6 h): 252.6 mg/dL
- Hb (6 h): 12.8 g/dL
- Lym (6 h): 78.8%
- MCH (6 h): 21.5 pg
- MCHC (6 h): 33.4%
- MCV (6 h): 64.3 fL
- Mono (6 h): 2.6%
- Neu (6 h): 17.6%
- PT (6 h): 12.2 s
- Plat (6 h): 112.7 x10_4/uL
- RBC (6 h): 595.6 x10_4/ul
- WBC (6 h): 59.9 x10_2/uL
- KIDNEY_L (6 h): 0.8 g
- KIDNEY_R (6 h): 0.9 g
- KIDNEY_TOTAL (6 h): 1.7 g
- LIVER (6 h): 7.5 g
- ALT (6 h): 38.8 IU/L
- AST (6 h): 74.2 IU/L
- BUN (6 h): 7.6 mg/dL
- CRE (6 h): 0.2 mg/dL
- Cl (6 h): 109.4 meq/L
- DBIL (6 h): 0.012 mg/dL
- GLC (6 h): 175 mg/dL
- IP (6 h): 10.4 mg/dL
- LDH (6 h): 54.4 IU/L
- Na (6 h): 141.8 meq/L
- RALB (6 h): 2.5 g/dL
- TBIL (6 h): 0.042 mg/dL
- TC (6 h): 76.4 mg/dL
- TG (6 h): 56.2 mg/dL
- TP (6 h): 5.2 g/dL
- gamma-GTP (6 h): 1.2 IU/L
- TERMINAL_BW (9 h): 193.9 g
- APTT (9 h): 14.5 s
- Bas (9 h): 0%
- Eos (9 h): 0.8%
- Fbg (9 h): 274.6 mg/dL
- Hb (9 h): 13 g/dL
- Ht (9 h): 38.6%
- Lym (9 h): 79%
- MCH (9 h): 22.2 pg
- MCHC (9 h): 33.7%
- MCV (9 h): 65.8 fL
- Mono (9 h): 2.4%
- Neu (9 h): 17.4%
- PT (9 h): 12.1 s
- Plat (9 h): 121.3 x10_4/uL
- RBC (9 h): 586.6 x10_4/ul
- WBC (9 h): 71.5 x10_2/uL
- KIDNEY_L (9 h): 0.8 g
- KIDNEY_R (9 h): 0.8 g
- KIDNEY_TOTAL (9 h): 1.7 g
- LIVER (9 h): 7.3 g
- ALT (9 h): 43.8 IU/L
- AST (9 h): 75.2 IU/L
- BUN (9 h): 8.4 mg/dL
- CRE (9 h): 0.2 mg/dL
- Cl (9 h): 107 meq/L
- DBIL (9 h): 0.01 mg/dL
- GLC (9 h): 184.6 mg/dL
- IP (9 h): 11.2 mg/dL
- LDH (9 h): 59.8 IU/L
- Na (9 h): 141.6 meq/L
- RALB (9 h): 2.5 g/dL
- TBIL (9 h): 0.044 mg/dL
- TC (9 h): 79.4 mg/dL
- TG (9 h): 39 mg/dL
- TP (9 h): 5.3 g/dL
- gamma-GTP (9 h): 1.4 IU/L
- TERMINAL_BW (24 h): 193.1 g
- APTT (24 h): 15.8 s
- Bas (24 h): 0.2%
- Eos (24 h): 1.2%
- Fbg (24 h): 260.2 mg/dL
- Hb (24 h): 13.2 g/dL
- Ht (24 h): 39.4%
- Lym (24 h): 80.8%
- MCH (24 h): 21.5 pg
- MCHC (24 h): 33.4%
- MCV (24 h): 64.5 fL
- Mono (24 h): 3.2%
- Neu (24 h): 14.2%
- PT (24 h): 12.9 s
- Plat (24 h): 113.6 x10_4/uL
- RBC (24 h): 611.2 x10_4/ul
- WBC (24 h): 91.3 x10_2/uL
- KIDNEY_L (24 h): 0.9 g
- KIDNEY_R (24 h): 0.9 g
- KIDNEY_TOTAL (24 h): 1.7 g
- LIVER (24 h): 8.4 g
- ALT (24 h): 45 IU/L
- AST (24 h): 71.6 IU/L
- BUN (24 h): 12.8 mg/dL
- CRE (24 h): 0.2 mg/dL
- Cl (24 h): 109.4 meq/L
- DBIL (24 h): 0.018 mg/dL
- GLC (24 h): 185.8 mg/dL
- IP (24 h): 8.3 mg/dL
- LDH (24 h): 54 IU/L
- Na (24 h): 143.2 meq/L
- RALB (24 h): 2.6 g/dL
- TBIL (24 h): 0.044 mg/dL
- TC (24 h): 51.4 mg/dL
- TG (24 h): 81 mg/dL
- TP (24 h): 5.4 g/dL
- gamma-GTP (24 h): 1 IU/L
